Experimental data published in patent publication US11993640B2, “Treating inflammatory lung disease” (United States Government as represented by the Department …, priority 2019, dated 2024).
Non-standard residues stand in square brackets, D forms with d. Residues, ends and D or L forms follow the SMILES beside them. *: point of attachment. Phe(F5) = N[C@@H](Cc1c(F)c(F)c(F)c(F)c1F)C(=O)O; hArg = N=C(N)NCCCC[C@H](N)C(=O)O; 12Ado = NCCCCCCCCCCCC(=O)O; Nle = CCCC[C@H](N)C(=O)O; Orn = NCCC[C@H](N)C(=O)O; Abu = CC[C@H](N)C(=O)O; PhAc = O=C(Cc1ccccc1)*

Tests used:
HT-29 xenograft = test: Xenograft tumor growth in nude mice, colon cancer HT-29; format: in vivo; conditions: Panel G, 6 weeks, 5 μg/day s.c.
Description: (§1) The peptides' activity was compared with GHRH antagonist MIA-602. All statistical analyzses were performed from comparing GHRA antagonists to non-treated tumor (control).
(§2) Peptides and chemicals. GHRH antagonists MIA-602 and AVR-GHRH antagonists (see Table 2 above) were synthesized by solid phase methods and purified by HPLC. The peptides were dissolved in DMSO and further diluted in 10% 1, 2-propanediol. The final concentration of peptides was 50 µg/ml in 10% 1, 2-propanediol containing 0.1% of DMSO.
(§3) Cell culture. Human cancer cell lines including pancreatic (PANC-1 and CFPAC-1), lung (HCC827 and H460), stomach (NCI-N87), prostate (PC3), brest (MX-1 and HCC-1806), colorectal (HT-29), and ovarian (SK-OV-3 and OVCAR-3) were obtained from the American Type Culture Collection (ATCC) and cultured at 37° C. in a humidified 95% air/5% CO2 atmosphere in the medium recommended by ATCC.
(§4) Xenograft models of human cancers in nude mice. Female athymic (NCr nu/nu) nude mice, 5-to 6-weeks-old, obtained from the Envigo labs (Tampa, FL), were housed in laminar airflow cabinets under pathogen-free conditions with a 12-h light/12-h dark schedule, and were fed autoclaved standard chow and water. To generate mice with xenografted tumors, tumor xenografts were initiated by subcutaneous (s.c.) injection of […] human cancer cells into female nude mice. After about 4 weeks the resulting tumors were dissected and collected after removing necrosis tissues. The tumors were then cut into particles with size of ˜3 mm3 and transplanted s.c. by trocar needle into experimental animals. When tumors grew to the size of 50-60 mm3 (by volume), mice were randomized into groups and treated daily for 4-8 weeks by subcutaneous administration of 5 μg of GHRH antagonists MIA-602 or AVR-compounds (2-10 μg as indicated), or vehicle solutions (0.1% DMSO in 10% 1, 2-propanediol) respectively. Tumor sizes were measured weekly.
(§5) Statistical analysis. One-way ANOVA followed by Bonferroni comparison were performed. Data are expressed as Mean±SEM. To determine statistical significance between animal groups, two-tailed Student's t-test was conducted. Differences were considered significant when p<0.05.
(§6) Results. […] FIG. 1A-N represents in vivo inhibition of tumor growth during the treatment with GHRH antagonist MIA-602 and selected AVR antagonists in nude mice xenografted with various human tumors including pancreatic cancer PANC-1 (FIG. 1A) and CFPAC-1 (FIG. 1I); lung cancer HCC827 (FIGS. 1B, C) and H460 (FIG. 1H); stomach cancer N87 (FIGS. 1D-F); colon cancer HT-29 (FIG. 1G); breast cancer MX-1 and HCC-1806 (FIGS. 1J, K); ovarian cancer SK-OV-3 and OVACAR-3 (FIGS. 1L, M) and prostate cancer PC3 (FIG. 1N). See also Table 5.

PC3 xenograft = test: Xenograft tumor growth in nude mice, prostate cancer PC3; format: in vivo; conditions: Panel N, 8 weeks, 5 μg/day s.c.
Description: as §1, §2, §3, §4
Statistical analysis. One-way ANOVA followed by Bonferroni comparison were performed. Data are expressed as Mean±SEM. […]

MX-1 cells = test: In vitro cell viability, breast cancer MX-1; format: cell-based, human; conditions: 5 μM, 72 h
Description: The inhibitory effects of the various synthesized GHRH antagonists were tested in cell proliferation assays in various human cancer cell lines including stomach cancer (KATOIII, N87), colon cancer (HT-29), urothelial cancer (J82, RT4), pancreatic cancer (PANC-1, CFPAC-1), prostatic cancer (PC3), breast cancer (MX-1, HCC1806), ovarian cancer (SK-OV-3, OVCAR-3) and lung cancer (HCC827, H460).
as §3, with “(NCI-N87 and KATOIII), urothelial (J82, RT4), prostatic” for “(NCI-N87), prostate”, “breast” for “brest”, “HCC 1806),” for “HCC-1806),”
In vitro cell viability. Cell viability was analyzed as follows: cancer cells including pancreatic (PANC-1 and CFPAC-1), lung (HCC827 and H460), stomach (NCI-N87 and KATOIII), urothelial (J82, RT4), prostatic (PC3) and breast (MX-1 and HCC 1806), colorectal (HT-29) and ovarian (SK-OV-3 and OVCAR-3) were grown on 96 well plates to ˜60% confluence, the cells were starved for 24 h in culture medium containing 0.5% FBS. Cells were then treated with GHRH antagonists MIA602 AVR compounds at concentrations of 1, 2.5 or 5 μM, or vehicle (0.1% DMSO) in quintuplicates for 72 hours. The medium was replaced every 48 hours. Cell viability was measured using CellTiter 96 aqueous one solution kit (Promega). Inhibitory effects of tested AVR compounds in comparison to that of MIA602 are presented as inhibitory potency.
Inhibitory effects of selected AVR compounds in comparison to that of MIA602 are presented as inhibitory potency (e.g., percentage of inhibition). […] The cell lines tested including lung cancer HCC827 (FIG. 2A), pancreatic cancer CFPAC-1 (FIG. 2B), stomach cancer N87 (FIG. 2C), colon cancer HT-29 (FIG. 2D), breast cancers MX-1 and HCC1806 (FIGS. 2E, F). Based on the results of cell proliferation assay after cancer cells were treated with antagonist at concentration of 5 μM for 72H, the relative inhibitory potency of AVR antagonists in comparison to MIA-602 is summarized in Table 3 A and B. Over 60 AVR compounds were tested in 12 cancer cell lines.
Based on the results of cell proliferation assay after cancer cells were treated with antagonist at concentration of 5 µM for 72H, * at concentration of 2 µM for 72 H.

HCC827 xenograft = test: Xenograft tumor growth in nude mice, lung cancer HCC827; format: in vivo; conditions: Panel C, 8 weeks, 5 μg/day s.c.
Description: as §1, §2, §3, §4, §5, §6

## CCCC[C@H](NC(=O)[C@@H](NC(=O)[C@H](CC(=O)O)NC(=O)[C@H](CCC(N)=O)NC(=O)[C@H](CC(C)C)NC(=O)[C@H](CC(C)C)NC(=O)[C@H](CCCN)NC(=O)[C@H](Cc1c[nH]cn1)NC(=O)[C@H](C)NC(=O)[C@H](CO)NC(=O)[C@H](CC(C)C)NC(=O)[C@H](CCC(N)=O)NC(=O)[C@H](CC)NC(=O)[C@H](CC(C)C)NC(=O)[C@@H](NC(=O)[C@H](CCCN)NC(=O)[C@H](Cc1c[nH]cn1)NC(=O)[C@H](Cc1ccc(OC)cc1)NC(=O)[C@H](CCCCNC(=N)N)NC(=O)[C@H](C)NC(=O)[C@@H](NC(=O)[C@H](Cc1c(F)c(F)c(F)c(F)c1F)NC(=O)[C@@H](NC(=O)[C@H](C)NC(=O)[C@H](CC(=O)O)NC(=O)[C@@H](CCCNC(=N)N)NC(=O)[C@H](Cc1ccc(O)cc1)NC(=O)CCCCCCCCCCCNC(=O)Cc1ccccc1)[C@@H](C)CC)[C@@H](C)O)C(C)C)[C@@H](C)CC)C(=O)N[C@H](CCCNC(=N)N)C(=O)N[C@@H](CCCCNC(=N)N)C(N)=O [MIA-602, PhAC-Ada, Tyr D-Arg, Asp, Ala, Ile, 5FPhe, Thr, Ala, Har, Tyr(Me), His, Orn, Val, Leu, Abu, Gin, Leu, Ser, Ala, His, Orn, Leu, Leu, Gin, Asp, Ile, Nle, D-Arg, Har NH2, reference compound] ({PhAc-12Ado}-Y[dR]DAI[Phe(F5)]TA[hArg]Y(Me)H[Orn]VL[Abu]QLSAH[Orn]LLQDI[Nle][dR][hArg]-NH2)
HT-29 xenograft
  Tumor Growth %: 582.10%
PC3 xenograft
  Tumor Growth %: 450.9%
MX-1 cells; Table 3B
  In vitro relative inhibitory potency in comparison to MIA-602, MX-1: 1
MX-1 cells; relative to MIA602 = 1, Table 3A
  Relative inhibitory potency, Breast MX-1: 1
HCC827 xenograft
  Tumor Growth %: 523.03%
HCC827 xenograft; vs control
  % Inhibition: 37.8%
